Source: patent publication US20250327028A1, “ENGINEERED PLATELETS AS TARGETED PROTEIN DEGRADERS” (Wisconsin Alumni Research Foundation, priority 2024, published 2025)

Assays:
4T1 cells = experiment: HAC-B-mediated internalization of streptavidin in 4T1 cells; type: cell-based, murine; conditions: 4T1 cells pretreated 5 μM 2 h, vs cells without pretreatment
Method: HAC-B-mediated internalization of streptavidin in 4T1 cells: 5×10^4 4T1 cells were seeded in a confocal dish and cultured for 24 h at 37° C. Then, the cells were treated with free HAC-B at 5 μM for 2 h. Next, the drug-containing medium was removed, and PBS was used to wash the cells twice, followed by incubating the cells in the blank medium containing streptavidin-FITC at 0.5 μM for 1 h. For cotreatment, 4T1 cells were cotreated with 5 μM HAC-B and 0.5 μM FITC-SA for 1 h. Before staining with Hoechst 33342, the cells were washed with PBS twice and fixed with 4% PFA at room temperature for 20 min. Finally, the cells were subjected to Leica SP8 Confocal WLL STED microscopy for observation.

HSP90 = experiment: HAC-B-mediated HSP90 labeling, streptavidin-mediated immunoblot analysis; type: cell-based, murine; conditions: 4T1 cells, 2 h
Method: Identification of HAC-B-mediated HSP90 labeling: Streptavidin-mediated immunoblot analysis: 4T1 cells were seeded in 6-well culture plates with a density of 5×10^4 cells in each well and cultured for 24 h. Following washing with PBS twice, the cells were treated with free HAC-B at the indicated concentrations for 2 h. Then, the cells were washed with PBS and lysed on ice with the RIPA buffer containing PMSF (1 mM) and the phosphatase inhibitor cocktail for 30 min. Next, the lysates were centrifuged at 10,000 g for 10 minutes at 4° C., and the corresponding supernatants were collected, followed by quantification of the total proteins in the supernatant through the BCA assay. Subsequently, the proteins in the supernatant were mixed with ¼ volume of 5× sample buffer formulated by Tris-HCl (pH 6.8, 312.5 mM), sucrose (25%), SDS (10%), bromophenol blue (0.025%), and DTT (250 mM). After incubation for 1 h at room temperature, equal amounts of proteins from different samples ([…]) were loaded into the 10% Bis-Tris gel. The separated proteins were transferred to PVDF membrane before the membranes were blocked with 5% nonfat milk in PBS-T. The PVDF membrane was incubated with streptavidin-HRP at room temperature for 2 h. […] Finally, the bands were treated with ECL western blot substrate and detected by the iBright™ imaging system.

WT MDA-MB-231 cells = experiment: In-gel fluorescence detection of NA-647 internalization in WT MDA-MB-231 cells; type: cell-based, human
Method: In-gel fluorescence detection: In-gel fluorescence was mainly used to investigate the internalization of NeutrAvidin™_647 in HAC-B-treated cancer cells.
Sample preparation: 4T1 or WT MDA-MB-231 cells were seeded in 6-well culture plates with a density of 5×10^4 cells in each well and cultured for 24 h. If HAI pretreatment was performed, the cells were incubated in the HAI-containing blank medium at different concentrations for 2 h and washed with PBS twice before the following treatments. Then, the cells were treated with free HAC-B or the combinations of various ligands at the indicated concentrations for the predetermined time points. Next, the drug-containing medium was removed, and PBS was used to wash the cells twice, followed by incubating the cells in the blank medium containing NeutrAvidin™ DyLight™ 650 (NA-647, Invitrogen/84607) at 0.5 μM for 1 h. Finally, the cells were washed with PBS and lysed on ice with the RIPA buffer containing PMSF (1 mM) and the phosphatase inhibitor cocktail for 30 min. A s for the 4T1 cells cotreated with NA-647 and HAC-B, the cells after 24-h incubation were treated with the blank medium containing NA-647 at 0.5 μM and HAC-B at various concentrations for 2 h before cell lysis.
In-gel fluorescence imaging: After 30-min lysis, the lysates were centrifuged at 10,000 g for 10 minutes at 4° C., and the corresponding supernatants were collected, followed by quantification of the total proteins in the supernatant through the BCA assay. Afterward, the proteins in the supernatant were mixed with ¼ volume of 5× sample buffer formulated by Tris-HCl (pH 6.8, 312.5 mM), sucrose (25%), SDS (10%), bromophenol blue (0.025%), and dithiothreitol (DTT, 250 mM). After incubation for 1 h at room temperature, equal amounts of proteins from different samples ([…] per lane) were loaded into the 12% Bis-Tris gel. After the proteins were separated, the gels were subjected to fluorescence imaging with the ChemiDoc™ MP imaging system (Bio-Rad).

## N#CCN(C(=O)CCCC[C@@H]1SC[C@@H]2NC(=O)N[C@@H]21)S(=O)(=O)c1ccc(C(=O)NCCCn2c(Sc3cc4c(cc3I)OCO4)nc3c(N)ncnc32)cc1 [HAC-B, N-(3-(6-amino-8-((6-iodobenzo[d][1,3]dioxol-5-yl)thio)-9H-purin-9-yl)propyl)-4-(N-(cyanomethyl)-N-(5-((3aS,4S,6aR)-2-oxohexahydro-1H-thieno[3,4-d]imidazol-4-yl)pentanoyl)sulfamoyl)benzamide]
4T1 cells
  internalization of streptavidin-FITC: much stronger green fluorescence signals
HSP90
  concentration that labels HSP90 with higher efficiency: over 0.8 μM
HSP90; various concentrations
  biotin labeling of HSP90 (detected by HRP-streptavidin): modified HSP90 within 2 h in a concentration-dependent manner
WT MDA-MB-231 cells; HAC-B pretreatment 5 μM, 4 h
  internalization of NA-647 after optimized pretreatment: substantially internalize NA-647
WT MDA-MB-231 cells; WT MDA-MB-231 cells, HAC-B pretreatment, then NA-647 0.5 μM 1 h
  internalization of extracellular NA-647: enhance the internalization of extracellular NA-647 in a time and concentration-dependent manner
